From patent US9029369B2, “Aprepitant L-proline composition and cocrystal” (Nuformix Limited, priority 2010, dated 2015)
Where two headings read alike, the source gives them in different places.

Assays:
[1] = Stability study under accelerated conditions, 40° C./75% RH, examined by XRPD
[2] = Dissolution study, USP Apparatus 2 (paddle), distilled water containing 2.2% SDS; format: physicochemical; details: 2.2% SDS in purified water
Protocol: Material providing 125 mg of aprepitant was used in each dissolution experiment and in each experiment the test sample was added directly to the dissolution media as a loose powder.
Analysis was carried out by HPLC/UV using an Agilent 1100/1200 series HPLC system with UV variable wavelength detection. Standards were prepared in acetonitrile at 0.14 mg/ml. All standard and sample solutions were filtered through 0.45 μm filters.

[3] = cited from earlier work
[4] = nanoparticulate formulation (marketed capsules, oral); cited from earlier work
[5] = low solubility and low permeability API; cited from earlier work
[6] = 0 mins, 900 ml, 37.0° C., 100 rpm, material providing 125 mg aprepitant, triplicate
[7] = 180 mins (infinity time point), 37.0° C., 100 rpm

mean dissolution value [2, 6] [%]	mean dissolution value ([2]; 1 min, 37.0° C., 100 rpm)	mean dissolution value ([2]; 2 mins, 37.0° C., 100 rpm) [%]	mean dissolution value ([2]; 3 mins, 37.0° C., 100 rpm) [%]	mean dissolution value ([2]; 4 mins, 37.0° C., 100 rpm) [%]	mean dissolution value ([2]; 5 mins, 37.0° C., 100 rpm) [%]	mean dissolution value ([2]; 10 mins, 37.0° C., 100 rpm) [%]	mean dissolution value ([2]; 15 mins, 37.0° C., 100 rpm) [%]	mean dissolution value ([2]; 20 mins, 37.0° C., 100 rpm) [%]	mean dissolution value ([2]; 30 mins, 37.0° C., 100 rpm) [%]	mean dissolution value ([2]; 45 mins, 37.0° C., 100 rpm) [%]	mean dissolution value ([2]; 60 mins, 37.0° C., 100 rpm) [%]	mean dissolution value [2, 7] [%]	SMILES	other results
0.0	more than 93%	95.7	95.6	95.8	95.1	95.5	95.9	96.0	96.2	96.8	97.0	99.2	C[C@@H](O[C@H]1OCCN(Cc2n[nH]c(=O)[nH]2)[C@H]1c1ccc(F)cc1)c1cc(C(F)(F)F)cc(C(F)(F)F)c1.O.O=C(O)[C@@H]1CCCN1	XRPD Characterization ([1]; 1 month): cocrystal; XRPD Characterization ([1]; 1 week): cocrystal; XRPD Characterization ([1]; 2 months): cocrystal; XRPD Characterization ([1]; 2 week): cocrystal; XRPD Characterization ([1]; 3 months): cocrystal; XRPD Characterization ([1]; 3 week): cocrystal; XRPD Characterization ([1]; 6 months): cocrystal; physical stability with respect to dissociation into starting components ([1]; six month period): stable; XRPD Characterization ([1]; time point 0): cocrystal; behaviour once dissolved (re-precipitation of the API) ([2]; up to 180 minutes): remained in solution with no re-precipitation of the API; mean dissolution value ([2]; 1 min, 37.0° C., 100 rpm, listed as 1:1:1 Aprepitant L-proline cocrystal): 93.4%
0.0	18.5%	34.4	44.2	52.2	57.6	70.1	77.2	80.4	85.4	87.3	89.3	94.6	C[C@@H](O[C@H]1OCCN(Cc2nc(=O)[nH][nH]2)[C@H]1c1ccc(F)cc1)c1cc(C(F)(F)F)cc(C(F)(F)F)c1 [Crystalline Aprepitant, reference compound]	solubility ([3]; in acetonitrile): slightly soluble; solubility ([3]; in ethanol): sparingly soluble; solubility ([3]; in isopropyl acetate): sparingly soluble; solubility ([3]; in water): practically insoluble; mean absolute bioavailability [4]: 60-65%; time to achieve the same level of dissolution that the cocrystal achieved within the first minute ([2]; 37.0° C., 100 rpm): ~180 min; BCS class [5]: Class IV
